Laboratory results: ChEMBL document CHEMBL1165899, “Synthesis and antitumor evaluation of novel cyclic arylsulfonylureas: ADME-T and pharmacophore prediction” (2010)

Legend:
Assay type in all cases: functional
SK-MEL-2 = assay: Growth inhibition of human SK-MEL-2 cells at 10 uM after 48 hrs by sulforhodamine B assay relative to control; settings: SK-MEL-2, 48 h, read-out: GI
M14 = assay: Growth inhibition of human M14 cells at 10 uM after 48 hrs by sulforhodamine B assay relative to control; settings: M14, 48 h, read-out: GI
IGROV-1 = assay: Growth inhibition of human IGROV1 cells at 10 uM after 48 hrs by sulforhodamine B assay relative to control; settings: IGROV-1, 48 h, read-out: GI
OVCAR-8 = assay: Growth inhibition of human OVCAR8 cells at 10 uM after 48 hrs by sulforhodamine B assay relative to control; settings: OVCAR-8, 48 h, read-out: GI
RXF 393 = assay: Growth inhibition of human RXF393 cells at 10 uM after 48 hrs by sulforhodamine B assay relative to control; settings: RXF 393, 48 h, read-out: GI

Row | SMILES | inhibition of growth at 10 µM (SK-MEL-2) [%] | inhibition of growth at 10 µM (M14) [%] | inhibition of growth at 10 µM (IGROV-1) [%] | inhibition of growth at 10 µM (OVCAR-8) [%] | inhibition of growth at 10 µM (RXF 393) [%]
1 | Cc1ccc(S(=O)(=O)N2C(=O)CC(=O)N(c3ccc(Cl)cc3)C2=O)cc1 | 73.9 | -7.35 | 65.6 | 54.1 | 
2 | O=C1N/C(=C\c2ccc(Cl)cc2)C(=O)N1S(=O)(=O)c1ccc(Cl)cc1 | 17.6 | -20.1 | 81 | 4.01 | 76.2
3 | COc1ccc(/C=C2\NC(=O)N(S(=O)(=O)c3ccccc3)C2=O)cc1 | 11.6 |  | 115 | 5.23 | 96.5
4 | COc1ccc(/C=C2\NC(=O)N(S(=O)(=O)c3ccc(Cl)cc3)C2=O)cc1 | 8.98 |  | -1.97 | -1.23 | 84.1
5 | O=c1c2ccccc2n(S(=O)(=O)c2ccc(Cl)cc2)c(=O)n1-c1ccccc1 | 79.3 | 17.4 | 91.4 | 40.9 | 
6 | O=C1CC(=O)N(S(=O)(=O)c2ccc(Cl)cc2)C(=O)N1c1ccccc1 | 65.1 | 8.19 | 34.1 | 58.9 | 
7 | O=C1N/C(=C\c2ccccc2)C(=O)N1S(=O)(=O)c1ccc(Cl)cc1 | 11.7 |  | -9.05 | 3.88 | 0.92
8 | O=C1N/C(=C\c2ccc(Cl)cc2)C(=O)N1S(=O)(=O)c1ccccc1 | 19.9 |  | 1.13 | 6.79 | 7.42
9 | CN(C)c1ccc(/C=C2\NC(=O)N(S(=O)(=O)c3ccccc3)C2=O)cc1 | 3.98 | -2.88 | 107 | 1.17 | 80.3
10 | COc1ccc(-n2c(=O)c3ccccc3n(S(=O)(=O)c3ccccc3)c2=O)cc1 | -43.2 | 56.5 | 63.2 | 26 | 43
11 | O=c1c2ccccc2n(S(=O)(=O)c2ccccc2)c(=O)n1-c1ccccc1 | 70.4 | 1.02 | 86.8 | 33.2 | 
12 | COc1ccc(N2C(=O)CC(=O)N(S(=O)(=O)c3ccc(Cl)cc3)C2=O)cc1 | 61.1 | -3.04 | 76.5 | 42.4 | 
